Residue numbers refer to the chain shown, from its start.
Tests used:
Experiment in all cases: Time-dependent IC50 COX inhibition assay
Assay type in all cases: biochemical, murine
mCOX-2^V349I = molecular target: T1, mCOX-2^V349I (Mus musculus, UniProt Q05769, V335I); settings: 20 min pre-incubation, then 50 μM AA for 30 s
T1 construct: made in house; host or cells: Sf9 insect cells (baculovirus, pVL1393)
T1 sequence (Q05769 18-604 V335I): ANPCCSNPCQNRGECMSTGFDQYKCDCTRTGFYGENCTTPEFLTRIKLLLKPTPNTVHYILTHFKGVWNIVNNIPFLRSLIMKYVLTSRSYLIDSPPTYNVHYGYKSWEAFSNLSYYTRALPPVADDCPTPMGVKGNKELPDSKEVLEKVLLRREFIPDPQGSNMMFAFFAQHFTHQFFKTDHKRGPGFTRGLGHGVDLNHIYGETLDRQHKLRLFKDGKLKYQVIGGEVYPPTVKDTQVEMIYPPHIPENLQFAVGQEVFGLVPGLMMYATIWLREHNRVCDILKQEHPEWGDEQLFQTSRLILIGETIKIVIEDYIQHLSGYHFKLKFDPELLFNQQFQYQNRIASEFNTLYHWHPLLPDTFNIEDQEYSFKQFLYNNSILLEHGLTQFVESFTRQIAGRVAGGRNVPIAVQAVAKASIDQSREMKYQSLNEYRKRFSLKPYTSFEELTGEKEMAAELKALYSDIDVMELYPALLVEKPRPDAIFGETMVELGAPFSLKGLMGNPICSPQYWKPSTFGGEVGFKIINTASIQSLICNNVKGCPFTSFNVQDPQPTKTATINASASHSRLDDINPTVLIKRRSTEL
Method: (§1) These mutated genes were used to assemble baculoviral constructs for large-scale expression in Sf9 cells. Purification of the expressed COX-2 protein was performed through traditional cellular fractionation and classical column chromatography. Activity or inhibition assays were performed in 100 mM Tris-HCl buffer containing 500 μM phenol, with hematin-reconstituted protein. Quantification of cyclooxygenase activity was performed by monitoring substrate (arachidonate or oxygen) consumption in a thermostatted cuvette at 37° C. using a polarographic electrode with a 5300 oxygen monitor (Yellow Springs Instrument Co. Inc., Yellow Springs, Ohio, United States of America). All inhibitors and substrates were solubilized in dimethyl sulfoxide (DMSO). Activity or inhibition assays were performed in 100 mM Tris-HCl buffer containing 500 μM phenol, with hematin-reconstituted protein. Maximal reaction velocity data were obtained from the linear portion of the oxygen uptake curves, and the data were analyzed by nonlinear regression with Prism 4.0 (GraphPad Software, San Diego, Calif., United States of America).
(§2) Time-dependent inhibition reactions were performed by pre-incubating the inhibitor and enzyme for 17 minutes at 25° C., followed by 3 minutes at 37° C. prior to the addition of 50 μM [1-^14C]-AA for 30 seconds at 37° C. Assays were terminated and analyzed for substrate consumption by thin layer chromatography as previously described (Kalgutkar et al., 2000a).
(§3) Maximal reaction velocity data were obtained from the linear portion of the oxygen uptake curves, and the data were analyzed by nonlinear regression. Instantaneous inhibition assays were performed with substrate and inhibitor added prior the initiation of the reaction by addition of protein. Time-dependent screening assays were performed by pre-incubating the inhibitor and enzyme for 17 minutes at 25° C., followed by 3 minutes at 37° C. prior to the addition of 50 μM [1-^14C]-arachidonic acid (AA) for 30 seconds at 37° C.
(§4) Assays were terminated and analyzed for substrate consumption by thin layer chromatography. […] Time-dependent COX inhibition reactions were pre-incubated at 37° C. for varying lengths of time (0-30 minutes) with various concentrations of inhibitor. All reactions were performed with [1-^14C]-AA for 30 seconds at 37° C.; reactions were terminated and analyzed as described above.
(§5) The COX reaction was allowed to proceed for 30 seconds before termination.

mCOX-2^V349A = molecular target: T2, mCOX-2^V349A (Mus musculus, UniProt Q05769, V335A)
T2 construct: made in house; host or cells: Sf9 insect cells (baculovirus, pVL1393)
T2 sequence (Q05769 18-604 V335A): T1 sequence (Q05769 18-604 V335I) with I318A
Method: as §1, §2, §3, §4, §5

wild type mCOX-2 = molecular target: T3, wild type mCOX-2 (Mus musculus, UniProt Q05769); settings: 20 min pre-incubation, then 50 μM AA for 30 s
T3 construct: made in house; host or cells: Sf9 insect cells (baculovirus, pVL1393)
T3 sequence (Q05769 18-604): T1 sequence (Q05769 18-604 V335I) with I318V
Method: as §1, §2, §3, §4, §5

For COc1ccc2c(c1)c(CC(=O)O)cn2C(=O)c1ccc(Cl)cc1 [DM-INDO, 2-Des-methylindomethacin], the IC50 (mCOX-2^V349I) was 3 µM, the “inhibition in the time-dependent IC50 assay” value (mCOX-2^V349A) was “less than 20%” and the IC50 (mCOX-2^V349A; 20 min pre-incubation, then 50 μM AA for 30 s) was > 16 µM. It also gave an IC50 (wild type mCOX-2) of 4 µM.

Source: patent publication US8168656B2, “Indoleacetic acid and indenacetic acid derivatives as therapeutic agents with reduced gastrointestinal toxicity” (Vanderbilt University, priority 2009, dated 2012)
